In publication PMC4245091, “Novel Virtual Screening Approach for the Discovery of Human Tyrosinase Inhibitors” (PLoS ONE, 2014):

Biological target: T1, Mushroom tyrosinase
T1 construct: gene PPO1; commercial native mushroom preparation (Sigma-Aldrich)
Assay: L-tyrosine to dopachrome, absorbance at […] nm
Type: biochemical
Conditions: L-tyrosine 0.2 mg/ml; 2 µg/ml enzyme; 100 mM phosphate pH 6.8; 5% ethanol; 25 °C; 30 min

With `CC(C)c1ccc(C(=O)CC(Sc2ccc(Cl)cc2)C(=O)O)cc1` (stereo not shown) [Lead1] the IC50 was 8 µM.
